In patent US20120077704A1, “METHOD FOR SCREENING COMPOUNDS FOR THE TREATMENT OR PREVENTION OF COLON CANCER” (priority 2009, published 2012):

How the values were obtained:
[1] = tested on: Caco-2 cells; experiment: ESR spectroscopy of cellular radical formation (DMPO spin trap); format: cell-based, human
[2] = tested on: Caco-2 cells; experiment: 8-oxodG analysis (oxidative DNA damage, HPLC-ECD); format: cell-based, human
Experimental: The Caco-2 human colorectal adenocarcinoma cell line (American Type Culture Collection, Manassas, Va., USA) was grown in Dulbecco's Modified Eagle's Medium supplemented with 10% fetal bovine serum, 1% non-essential amino acids, 1% sodium pyruvate and 1% penicillin/streptomycin, at 37° C., and 5% CO2. Cells were grown until 80% confluency before medium was replaced by DMEM without supplements containing 100 μM menadione or 20 μM H202. For microarray analyses, time-matched control cells were treated in an identical manner without addition of the oxidants. Samples were taken after 0.08, 0.25, 0.5, 1, 2, 4, 8, 16, or 24 hours. […] At the indicated time points, cells were fixed in 2 ml ice cold methanol for flow cytometry or medium was replaced by 1 ml Trizol for RNA/DNA isolation. […] Briefly, after extraction, DNA was digested into deoxyribonucleosides by treatment with nuclease P1 [0.02 U/μl] and alkaline phosphatase [0.014 U/μl]. The digest was then injected into a HPLC-ECD-system. […] UV-absorption of dG was simultaneously monitored at 260 nm. Data are presented as means ±SD.

[3] = tested on: Caco-2 cells; experiment: Flow cytometric analysis of cell cycle distribution; format: cell-based, human; conditions: for percentage of cells in the S phase: 20 uM H2O2 or 100 uM menadione
Experimental: (§1) The Caco-2 human colorectal adenocarcinoma cell line (American Type Culture Collection, Manassas, Va., USA) was grown in Dulbecco's Modified Eagle's Medium supplemented with 10% fetal bovine serum, 1% non-essential amino acids, 1% sodium pyruvate and 1% penicillin/streptomycin, at 37° C., and 5% CO2. Cells were grown until 80% confluency before medium was replaced by DMEM without supplements containing 100 μM menadione or 20 μM H202. For microarray analyses, time-matched control cells were treated in an identical manner without addition of the oxidants. Samples were taken after 0.08, 0.25, 0.5, 1, 2, 4, 8, 16, or 24 hours. […] At the indicated time points, cells were fixed in 2 ml ice cold methanol for flow cytometry or medium was replaced by 1 ml Trizol for RNA/DNA isolation. Analyses of cell cycle profiles and apoptosis was performed as previously described. Cells were stained with propidium iodide; apoptotic cells were visualised by means of the primary antibody M30 CytoDeath (Roche, Penzberg, Germany) and FITC conjugated anti-mouse Ig as secondary antibody (DakoCytomation, Glostrup, Denmark). Data analysis was done using CellQuest software (version 3.1, Becton Dickinson, San Jose, USA). […] Cell cycle profiles were analyzed using ModFit LT for Mac (version 2.0). Data are presented as means ±SD.

[4] = tested on: Caco-2 cells; experiment: Microarray gene expression, differentially expressed genes; format: cell-based, human; conditions: for number of differentially expressed genes: 20 uM H2O2 or 100 uM menadione, all time points up to 24 hours
Experimental: The Caco-2 human colorectal adenocarcinoma cell line (American Type Culture Collection, Manassas, Va., USA) was grown in Dulbecco's Modified Eagle's Medium supplemented with 10% fetal bovine serum, 1% non-essential amino acids, 1% sodium pyruvate and 1% penicillin/streptomycin, at 37° C., and 5% CO2. Cells were grown until 80% confluency before medium was replaced by DMEM without supplements containing 100 μM menadione or 20 μM H202. For microarray analyses, time-matched control cells were treated in an identical manner without addition of the oxidants. […] At the indicated time points, cells were fixed in 2 ml ice cold methanol for flow cytometry or medium was replaced by 1 ml Trizol for RNA/DNA isolation. Labelling and hybridisation of RNA samples were done according to Agilent's manual for microarrays with minor modifications ((Agilent Technologies, Breda, The Netherlands). RNA (0.5 μg) was transcribed into cDNA and labelled with Cyanine 3 (Cy3) or Cyanine 5 (Cy5). When dye-incorporation was above 7 pmol/μg RNA, 2 μg cRNA of the treated and time-matched control samples was applied on […] 22K and […] 4×44K Agilent Human Oligo Microarray. Slides were scanned on a GenePix 4000B (Molecular Devices, Sunnyvale, USA) with fixed laser power (100%) and PMT gain. For each exposure, two biological repeats per time point were performed. Also swapped Cy3 and Cy5 dye labelling was done, resulting in 72 hybridisations. Images were processed with ImaGene 6.0 software (BioDiscovery Inc., Los Angeles, USA) to quantify spot signals. Irregular spots were flagged. Data from ImaGene were transported into GeneSight software version 4.1.6 (BioDiscovery Inc., Los Angeles, USA). For each spot background was subtracted and flagged spots as well as spots with a net expression level below 20 in both channels were omitted. Data were log base 2 transformed and LOWESS normalization was applied. Expression difference with the time-matched control was calculated and if more than one probe of a gene was present on the array, the replicates were combined while omitting outliers (>2 standard deviations). Only the probe sets present at both types of array platforms were selected. […] The webtool GenePattern (http://genepattern.broad.mit.edu/gp/pages/index.jsf) was used for clustering and visualization of heat maps and cluster patterns.

[5] = tested on: Caco-2 cells; experiment: MetaCore pathway analysis of differentially expressed genes; format: cell-based, human; conditions: for Number of pathways: significant pathways p<0.01, 20 uM H2O2 or 100 uM menadione
From the text: The p-Values were all calculated using the basic formula for hypergeometric distribution. The p-Value essentially represents the probability for a particular mapping of an experiment to a pathway to arise by chance, considering the numbers of genes in experiment versus the number of genes in the pathway within the “full set” of all genes in the pathway.

[6] = tested on: Caco-2 cells; experiment: STEM time series analysis of gene expression; format: cell-based, human; conditions: for genes whose time-dependent expression correlates with 8-oxodG levels / genes significantly assigned to clusters of gene expression curves / number of different clusters of gene expression curves: STEM; for genes whose time-dependent expression correlates with 8-oxodG levels: log ratio transformed 8-oxodG levels; for genes significantly assigned to clusters of gene expression curves / number of different clusters of gene expression curves: 20 uM H2O2 or 100 uM menadione
From the text: For identification of genes co-regulated time-dependently and clustering with the phenotypic parameters, the software tool “Short Time-series Expression Miner” (STEM, version 1.1.2b; http://www.cs.cmu.edu/˜jernst/stem/) was used. […] Profiles are clustered by correlation analyses.

[7] = tested on: Caco-2 cells; conditions: 75 μM H2O2, 30 minutes incubation time; cited from earlier work
[8] = tested on: steroid 5-alpha reductase; conditions: inhibition of steroid 5-alpha reductase; cited from earlier work
[9] = tested on: Caco-2 cells; experiment: Flow cytometric analysis of apoptosis (M30 CytoDeath); format: cell-based, human; conditions: 20 uM H2O2 or 100 uM menadione
Experimental: as §1

[10] = tested on: rat hepatocytes; conditions: up to 2 hours after incubation; cited from earlier work

| Compound | percentage of cells in the S phase ([3]; 24 h) | number of differentially expressed genes [4] [genes] | Number of pathways ([5]; time 0.08 hrs) | Number of pathways ([5]; time 0.25 hrs) | Number of pathways ([5]; time 0.5 hrs) | Number of pathways ([5]; time 1 hrs) | Number of pathways ([5]; time 2 hrs) | Number of pathways ([5]; time 4 hrs) | Number of pathways ([5]; time 8 hrs) | Number of pathways ([5]; time 16 hrs) | Number of pathways ([5]; time 24 hrs) | genes whose time-dependent expression correlates with 8-oxodG levels [6] [genes] | genes significantly assigned to clusters of gene expression curves [6] [genes] | number of different clusters of gene expression curves [6] [clusters] | genes clustered by STEM with cell cycle phase ([6]; cell cycle phase G1) | significant pathways of genes clustered with cell cycle phase ([6]; cell cycle phase G1, p<0.01) | genes clustered by STEM with cell cycle phase ([6]; cell cycle phase G2/M) | significant pathways of genes clustered with cell cycle phase ([6]; cell cycle phase G2/M, p<0.01) | genes clustered by STEM with cell cycle phase ([6]; cell cycle phase S) | significant pathways of genes clustered with cell cycle phase ([6]; cell cycle phase S, p<0.01) | other results |
| --- | --- | --- | --- | --- | --- | --- | --- | --- | --- | --- | --- | --- | --- | --- | --- | --- | --- | --- | --- | --- | --- |
| OO [H2O2, hydrogen peroxide] | significantly decreased | 1404 | 8 | 15 | 17 | 6 | 4 | 5 | 8 | 5 | 6 | 8 | 998 | 6 | 29 | 0 | 45 | 1 | 1 | 0 | cellular HO. formation (DMPO.-OH) ([1]; increasing concentrations of H2O2): dose-dependent formation of DMPO.-OH; 8-oxodG level at 16 hours after exposure ([2]; 20 uM H2O2, 16 hours): significantly elevated; time of significantly increased peak in 8-oxodG ([2]; 20 uM H2O2, compared to control cells): 15 min; number of cells in G1 phase ([3]; 16 h after exposure, compared to control cells): significantly decreased; percentage of cells in the G1/M phase ([3]; 24 h, 20 uM H2O2): significantly increased; recovery of the gene expression response ([4]; pulse-like response towards H2O2): ≤ 1 h; induction of the WNT signalling pathway ([5]; H2O2 exposure): immediately; Number of pathways of the gene expression cluster profile ([6]; H2O2, STEM cluster 0, p<0.01): 4; Number of pathways of the gene expression cluster profile ([6]; H2O2, STEM cluster 1, p<0.01): 1; Number of pathways of the gene expression cluster profile ([6]; H2O2, STEM cluster 2, p<0.01): 9; Number of pathways of the gene expression cluster profile ([6]; H2O2, STEM cluster 3, p<0.01): 1; Number of pathways of the gene expression cluster profile ([6]; H2O2, STEM cluster 4, p<0.01): 3; Number of pathways of the gene expression cluster profile ([6]; H2O2, STEM cluster 5, p<0.01): 4; affected genes selected out of 12931 genes [7]: 87 genes |
| CC(C)(C)NC(=O)[C@H]1CC[C@H]2[C@@H]3CC[C@H]4NC(=O)C=C[C@]4(C)[C@H]3CC[C@]12C [finasteride] |  |  |  |  |  |  |  |  |  |  |  |  |  |  |  |  |  |  |  |  | effect on cellular H2O2 production [8]: enhancement of cellular H2O2 production |
| CC1=CC(=O)c2ccccc2C1=O [menadione] | significant increase | 979 | 18 | 16 | 14 | 15 | 8 | 10 | 14 | 19 | 18 | 3 | 680 | 4 | 311 | 15 | 1 | 0 | 74 | 4 | O2.-derived DMPO.-OH signal ([1]; 100 uM, 45 minutes incubation time): showed an O2.-derived DMPO.-OH signal; induction of apoptosis [9]: absence of apoptosis; time of highest significantly increased level of 8-oxodG ([2]; 100 uM menadione): 2 h; 8-oxodG level at 15 minutes ([2]; 100 uM menadione, 15 minutes, much lower than H2O2 at 15 minutes): significant increased level; cells of the G1 phase ([3]; 24 h, 100 uM menadione): significant decrease; recovery of the gene expression response ([4]; up to 24 hours): no recovery; time after which the WNT signalling pathway is induced ([5]; menadione exposure): 1 h; number of pathways significantly induced exclusively by the oxidant ([5]; p < 0.01): 24; Number of pathways of the gene expression cluster profile ([6]; menadione, STEM cluster 0, p<0.01): 12; Number of pathways of the gene expression cluster profile ([6]; menadione, STEM cluster 1, p<0.01): 18; Number of pathways of the gene expression cluster profile ([6]; menadione, STEM cluster 2, p<0.01): 4; Number of pathways of the gene expression cluster profile ([6]; menadione, STEM cluster 3, p<0.01): 8; 8-oxodG formation [10]: absence of 8-oxodG formation |
